Structures can show the parent of a compound that is named as a salt. Where two headings read alike, the source gives them in different places.
Key:
Type in all cases: cell-based
[1] = test system: human lung cancer cell line H1299; experiment: Caspase cascade activation in H1299 cells; conditions: NCI-H1299, 24 h, read-out: Caspase activation Potency EC50 H1299 (24 h)
In short: (§1)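 Cells were exposed to compound at 0.016 to 10 μM final for 24 h or 48 h at 37 °C. They were then lysed with 14 μM N-(Ac-DEVD)-N′-ethoxycarbonyl-R110 in lysolecithin/DTT/PIPES buffer pH 7.2 for 3 h at room temperature (ex 485/em 530 nm). EC50 came from a sigmoidal fit of net RFU relative to untreated control.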

[2] = test system: human hepatocellular carcinoma cell line SNU398; experiment: Caspase cascade activation in SNU398 cells; conditions: Homo sapiens, SNU-398, 48 h, read-out: Caspase activation Potency EC50 SNU398 (48 h)
In short: as §1

[3] = test system: human colon carcinoma cell line HCT116; experiment: Caspase cascade activation in HCT116 cells; conditions: Homo sapiens, HCT-116, 48 h, read-out: Caspase activation Potency EC50 HCT116 (48 h)
In short: as §1

[4] = test system: human breast cancer cell line MDAMB435; experiment: Inhibition of cell proliferation (GI50) in MDAMB435 cells
Protocol: (§2) Human breast cancer cell lines T-47D, MX-1 and MDAMB435, human colon cancer cell line HT29, and human lung cancer cell line H1299 were grown and harvested as in Example 75. An aliquot of […] of cells (4.4×10^4 cells/mL) was added to a well of a 96-well microtiter plate containing 5 μL of a 10% DMSO in RPMI-1640 media solution containing 10 nM to 100 μM of N-(2,5-dimethoxyphenyl)-2-methylthieno[3,2-d]pyrimidin-4-amine (1 nM to 10 μM final). An aliquot of 45 μL of cells was added to a well of a 96-well microtiter plate containing 5 μL of a 10% DMSO in RPMI-1640 media solution without compound as the control sample for maximal cell proliferation (Lmax). The samples were mixed by agitation and then incubated at 37° C. for 48 h in a 5% CO2-95% humidity incubator. After incubation, the samples were removed from the incubator and 25 μL of CellTiter-Glo™ reagent (Promega) was added. The samples were mixed by agitation and incubated at room temperature for 10-15 min. Plates were then read using a luminescent plate reader (Model SPECTRAfluor Plus, Tecan) to give Ltest values.
(§3) Baseline for GI50 (dose for 50% inhibition of cell proliferation) of initial cell numbers was determined by adding an aliquot of 45 μL of cells or 45 μL of media, respectively, to wells of a 96-well microtiter plate containing 5 μL of a 10% DMSO in RPMI-1640 media solution. The samples were mixed by agitation and then incubated at 37° C. for 0.5 h in a 5% CO2-95% humidity incubator. After incubation, the samples were removed from the incubator and 25 μL of CellTiter-Glo™ reagent (Promega) was added. The samples were mixed by agitation and incubated at 37° C. for 10-15 min at room temperature in a 5% CO2-95% humidity incubator. Fluorescence was read as above, (LStart) defining luminescence for initial cell number used as baseline in GI50 determinations.
(§4) GI50 (dose for 50% inhibition of cell proliferation) is the concentration where [(LTest−Lstart)/(LMax−Lstart)]=0.5.

[5] = test system: human hepatocellular carcinoma cell line SNU398; experiment: Inhibition of cell proliferation (GI50) in SNU398 cells; conditions: SNU-398, Table IV, read-out: GI50 in Multi-Cancer Cells SNU398
Protocol: as §2, §3, §4
(§5) Several compounds were tested in multi cancer cell lines, including human breast cancer cell lines T-47D, MX-1, SKBR3 and MDAMB435, human hepatocellular carcinoma cell line SNU398, human colon carcinoma cell line HCT116, human sarcoma cell line MES-SA and multi-drug resistant (MDR) human sarcoma cell line MES-SA/ADR, murine leukemia cell line P388 and multi-drug resistant (MDR) murine leukemia cell line P388ADR, and the data are summarized in Table IV.

[6] = test system: human colon carcinoma cell line HCT116; experiment: Inhibition of cell proliferation (GI50) in HCT116 cells; conditions: HCT-116, Table IV, read-out: GI50 in Multi-Cancer Cells HCT116
Protocol: as §2, §3, §4, §5

[7] = test system: human breast cancer cell line SKBR3; experiment: Inhibition of cell proliferation (GI50) in SKBR3 cells; conditions: SK-BR-3, Table IV, read-out: GI50 in Multi-Cancer Cells SKBR3
Protocol: as §2, §3, §4, §5

[8] = test system: multi-drug resistant (MDR) human sarcoma cell line MES-SA/ADR; experiment: Inhibition of cell proliferation (GI50) in MES-SA/ADR cells; conditions: Table IV, read-out: GI50 in Multi-Cancer Cells MES-SA/ADR
Protocol: as §2, §3, §4, §5

[9] = test system: murine leukemia cell line P388; experiment: Inhibition of cell proliferation (GI50) in P388 cells; conditions: Mus musculus, Table IV, read-out: GI50 in Multi-Cancer Cells P388
Protocol: as §2, §3, §4, §5

[10] = MDA-MB-435, Table IV, read-out: GI50 in Multi-Cancer Cells MDAMB435

Structure (SMILES)	EC50 [1] [nM]	EC50 [2] [nM]	EC50 [3] [nM]	GI50 ([4]; MDA-MB-435, Table III, 48 h, read-out: GI50 in Cancer Cells MDAMB435) [nM]	GI50 [4, 10] [nM]	GI50 [5] [nM]	GI50 [6] [µM]	GI50 [7] [nM]	GI50 [8] [µM]	GI50 [9] [nM]
COc1ccc(OC)c(Nc2ncnc3ccsc23)c1 [Example 2, N-(2,5-Dimethoxyphenyl)thieno[3,2-d]pyrimidin-4-amine]	2910	1610	5000	756	1070	2100	4.98	500	7.26	2060
COc1cc(Nc2ncnc3ccsc23)cc(OC)c1 [Example 12, N-(3,5-Dimethoxyphenyl)thieno[3,2-d]pyrimidin-4-amine hydrochloride]	303	249	279		105	706	1.25	60	1.2	540
